Laboratory results: patent publication US7833967B2, “Synthetic antimicrobial polypeptides” (priority 2003, dated 2010)

Test system: E. coli TOP10
Experiment: Suicide expression system (SES) growth inhibition
Format: cell-based
Details: Table 4; variants of SEQ ID NO:10, re-tested in the Bioscreen C

Q: How did the “Growth inhibition (%)” value turn out when “197 (RRRPFRPPFRPPFRPPFRPPLRPPFRP; Synthetic antimicrobial peptide) [compound 197]” was run?
A: The value was 86%.

Q: With “198 (RRRPFRPPFRPPFRPPFRPPFRPPFRP; Synthetic antimicrobial peptide) [compound 198]” as the substance, how does the “Growth inhibition (%)” value read?
A: The value was 91%.

Q: For “199 (RRRPLRPPIRPPFRPPVRPPFRPPFRP; Synthetic antimicrobial peptide) [compound 199]”, which “Growth inhibition (%)” value is on record?
A: Its value is 80%.

Q: With “200 (RRRPFRPPFRPPLRPPFRPPVRPPFRP; Synthetic antimicrobial peptide) [compound 200]” as the substance, how does the “Growth inhibition (%)” value read?
A: The value was 87%.

Q: Which “Growth inhibition (%)” value does the source give for “201 (RRRPFRPPIRPPIRPPFRPPIRPPFRP; Synthetic antimicrobial peptide) [compound 201]” here?
A: The value was 78%.

Q: How did the “Growth inhibition (%)” value turn out when “202 (RRRPFRPPFRPPFRPPLRPPFRPPFRP; Synthetic antimicrobial peptide) [compound 202]” was run?
A: The value was 84%.

Q: How did the “Growth inhibition (%)” value turn out when “203 (RRRPFRPPIRPPFRPPIRPPFRPPFRP; Synthetic antimicrobial peptide) [compound 203]” was run?
A: The value was 79%.

Q: “204 (RRRPLRPPLRPPFRPPIRPPFRPPFRP; Synthetic antimicrobial peptide) [compound 204]” was tested. Which “Growth inhibition (%)” value did it give?
A: Its value is 76%.

Q: For “205 (RRRPFRPPFRPPIRPPVRPPFRPPFRP; Synthetic antimicrobial peptide) [compound 205]”, which “Growth inhibition (%)” value is on record?
A: Its value is 77%.

Q: With “206 (RRRPFRPPFRPPFRPPFRPPFRPPFRP; Synthetic antimicrobial peptide) [compound 206]” as the substance, how does the “Growth inhibition (%)” value read?
A: The value was 77%.

Same assay, conditions: Table 5; mixed-motif library, re-tested in the Bioscreen C

Q: Which “Growth inhibition (%)” value does the source give for “207 (RRRPPRFPRPFPIRPPPRFPRPIPFRP; Synthetic antimicrobial peptide) [compound 207]” here?
A: The value was 93%.

Q: “208 (RRRPPRFPRPFPVRPPPRFPRPIPVRP; Synthetic antimicrobial peptide) [compound 208]” was tested. Which “Growth inhibition (%)” value did it give?
A: Its value is 95%.

Q: How did the “Growth inhibition (%)” value turn out when “209 (RRRPPRIPRPFPIRPPPRFPRPIPFRP; Synthetic antimicrobial peptide) [compound 209]” was run?
A: The value was 78%.

Q: “210 (RRRPPRIPRPIPVRPPPRIPRPIPFRP; Synthetic antimicrobial peptide) [compound 210]” was tested. Which “Growth inhibition (%)” value did it give?
A: Its value is 94%.

Q: Which “Growth inhibition (%)” value does the source give for “211 (RRRPPRLPRPFPFRPPPRFPRPIPFRP; Synthetic antimicrobial peptide) [compound 211]” here?
A: Its value is 96%.

Q: How did the “Growth inhibition (%)” value turn out when “212 (RRRPPRLPRPFPFRPPPRFPRPVPIRP; Synthetic antimicrobial peptide) [compound 212]” was run?
A: The value was 96%.

Q: Which “Growth inhibition (%)” value does the source give for “213 (RRRPPRLPRPFPFRPPPRLPRPFPIRP; Synthetic antimicrobial peptide) [compound 213]” here?
A: Its value is 94%.

Q: Which “Growth inhibition (%)” value does the source give for “214 (RRRPPRLPRPFPFRPPPRLPRPIPLRP; Synthetic antimicrobial peptide) [compound 214]” here?
A: The value was 95%.

Q: “215 (RRRPPRLPRPFPFRPPPRPRPFPFRP; Synthetic antimicrobial peptide) [compound 215]” was tested. Which “Growth inhibition (%)” value did it give?
A: Its value is 94%.

Q: For “216 (RRRPPRLPRPFPFRPPPRPRPLPVRP; Synthetic antimicrobial peptide) [compound 216]”, which “Growth inhibition (%)” value is on record?
A: The value was 95%.

Q: For “217 (RRRPPRLPRPFPFRPPPRVPRPFPLRP; Synthetic antimicrobial peptide) [compound 217]”, which “Growth inhibition (%)” value is on record?
A: The value was 93%.

Q: For “218 (RRRPPRLPRPFPFRPPPRVPRPIPVRP; Synthetic antimicrobial peptide) [compound 218]”, which “Growth inhibition (%)” value is on record?
A: The value was 93%.

Q: With “219 (RRRPPRLPRPFPFRPPPRVPRPLPFRP; Synthetic antimicrobial peptide) [compound 219]” as the substance, how does the “Growth inhibition (%)” value read?
A: Its value is 93%.

Q: For “220 (RRRPPRLPRPFPIRPPPRFPRPFPVRP; Synthetic antimicrobial peptide) [compound 220]”, which “Growth inhibition (%)” value is on record?
A: The value was 90%.

Q: With “221 (RRRPPRLPRPFPIRPPPRFPRPLPFRP; Synthetic antimicrobial peptide) [compound 221]” as the substance, how does the “Growth inhibition (%)” value read?
A: The value was 93%.

Q: “222 (RRRPPRLPRPFPIRPPPRFPRPVPLRP; Synthetic antimicrobial peptide) [compound 222]” was tested. Which “Growth inhibition (%)” value did it give?
A: The value was 93%.

Q: “223 (RRRPPRLPRPFPIRPPPRLPRPLPFRP; Synthetic antimicrobial peptide) [compound 223]” was tested. Which “Growth inhibition (%)” value did it give?
A: The value was 90%.

Q: For “224 (RRRPPRLPRPFPIRPPPRVPRPFPVRP; Synthetic antimicrobial peptide) [compound 224]”, which “Growth inhibition (%)” value is on record?
A: Its value is 93%.

Q: With “225 (RRRPPRLPRPFPIRPPPRVPRPIPIRP; Synthetic antimicrobial peptide) [compound 225]” as the substance, how does the “Growth inhibition (%)” value read?
A: Its value is 97%.

Q: For “226 (RRRPPRLPRPFPIRPPPRVPRPIPVRP; Synthetic antimicrobial peptide) [compound 226]”, which “Growth inhibition (%)” value is on record?
A: Its value is 94%.

Q: With “227 (RRRPPRLPRPFPIRPPPRVPRPVPIRP; Synthetic antimicrobial peptide) [compound 227]” as the substance, how does the “Growth inhibition (%)” value read?
A: The value was 94%.

Q: Which “Growth inhibition (%)” value does the source give for “228 (RRRPPRLPRPFPLRPPPRFPRPFPIRP; Synthetic antimicrobial peptide) [compound 228]” here?
A: The value was 96%.

Q: “229 (RRRPPRLPRPFPLRPPPRFPRPFPLRP; Synthetic antimicrobial peptide) [compound 229]” was tested. Which “Growth inhibition (%)” value did it give?
A: The value was 95%.

Q: How did the “Growth inhibition (%)” value turn out when “230 (RRRPPRLPRPFPLRPPPRFPRPLPLRP; Synthetic antimicrobial peptide) [compound 230]” was run?
A: Its value is 94%.

Q: How did the “Growth inhibition (%)” value turn out when “231 (RRRPPRLPRPFPLRPPPRLPRPFPFRP; Synthetic antimicrobial peptide) [compound 231]” was run?
A: Its value is 98%.

Q: “232 (RRRPPRLPRPFPLRPPPRLPRPIPVRP; Synthetic antimicrobial peptide) [compound 232]” was tested. Which “Growth inhibition (%)” value did it give?
A: The value was 92%.

Q: For “233 (RRRPPRLPRPFPLRPPPRLPRPLPVRP; Synthetic antimicrobial peptide) [compound 233]”, which “Growth inhibition (%)” value is on record?
A: Its value is 91%.

Q: For “234 (RRRPPRLPRPFPLRPPPRVPRPLPIRP; Synthetic antimicrobial peptide) [compound 234]”, which “Growth inhibition (%)” value is on record?
A: Its value is 93%.

Q: “235 (RRRPPRLPRPFPLRPPPRVPRPVPFRP; Synthetic antimicrobial peptide) [compound 235]” was tested. Which “Growth inhibition (%)” value did it give?
A: Its value is 94%.

Q: Which “Growth inhibition (%)” value does the source give for “236 (RRRPPRLPRPFPLRPPPRVPRPVPFRP; Synthetic antimicrobial peptide) [compound 236]” here?
A: The value was 91%.

Q: “237 (RRRPPRLPRPFPLRPPPRVPRPVPVRP; Synthetic antimicrobial peptide) [compound 237]” was tested. Which “Growth inhibition (%)” value did it give?
A: The value was 96%.

Q: For “238 (RRRPPRLPRPFPVRPPPRFPRPFPIRP; Synthetic antimicrobial peptide) [compound 238]”, which “Growth inhibition (%)” value is on record?
A: The value was 95%.

Q: Which “Growth inhibition (%)” value does the source give for “239 (RRRPPRLPRPFPVRPPPRFPRPFPLRP; Synthetic antimicrobial peptide) [compound 239]” here?
A: The value was 99%.

Q: “240 (RRRPPRLPRPFPVRPPPRFPRPVPFRP; Synthetic antimicrobial peptide) [compound 240]” was tested. Which “Growth inhibition (%)” value did it give?
A: The value was 91%.

Q: “241 (RRRPPRLPRPFPVRPPPRIPRPIPFRP; Synthetic antimicrobial peptide) [compound 241]” was tested. Which “Growth inhibition (%)” value did it give?
A: Its value is 96%.

Q: For “242 (RRRPPRLPRPFPVRPPPRLPRPVPFRP; Synthetic antimicrobial peptide) [compound 242]”, which “Growth inhibition (%)” value is on record?
A: Its value is 90%.

Q: With “243 (RRRPPRLPRPFPVRPPPRLPRPVPFRP; Synthetic antimicrobial peptide) [compound 243]” as the substance, how does the “Growth inhibition (%)” value read?
A: Its value is 91%.

Q: For “244 (RRRPPRLPRPFPVRPPPRLPRPVPFRP; Synthetic antimicrobial peptide) [compound 244]”, which “Growth inhibition (%)” value is on record?
A: The value was 90%.

Q: “245 (RRRPPRLPRPFPVRPPPRVPRPFPVRP; Synthetic antimicrobial peptide) [compound 245]” was tested. Which “Growth inhibition (%)” value did it give?
A: Its value is 95%.

Q: How did the “Growth inhibition (%)” value turn out when “246 (RRRPPRLPRPFPVRPPPRVPRPFPVRP; Synthetic antimicrobial peptide) [compound 246]” was run?
A: Its value is 95%.

Q: How did the “Growth inhibition (%)” value turn out when “247 (RRRPPRLPRPFPVRPPPRVPRPLPFRP; Synthetic antimicrobial peptide) [compound 247]” was run?
A: The value was 93%.

Q: For “248 (RRRPPRLPRPFPVRPPPRVPRPVPIRP; Synthetic antimicrobial peptide) [compound 248]”, which “Growth inhibition (%)” value is on record?
A: The value was 94%.

Q: How did the “Growth inhibition (%)” value turn out when “249 (RRRPPRLPRPFPVRPPPRVPRPVPIRP; Synthetic antimicrobial peptide) [compound 249]” was run?
A: The value was 93%.

Q: Which “Growth inhibition (%)” value does the source give for “250 (RRRPPRLPRPIPFRPPPRIPRPIPVRP; Synthetic antimicrobial peptide) [compound 250]” here?
A: Its value is 96%.

Q: How did the “Growth inhibition (%)” value turn out when “251 (RRRPPRLPRPIPFRPPPRIPRPLPFRP; Synthetic antimicrobial peptide) [compound 251]” was run?
A: The value was 96%.

Q: Which “Growth inhibition (%)” value does the source give for “252 (RRRPPRLPRPIPFRPPPRIPRPVPVRP; Synthetic antimicrobial peptide) [compound 252]” here?
A: Its value is 92%.

Q: How did the “Growth inhibition (%)” value turn out when “253 (RRRPPRLPRPIPFRPPPRLPRPIPIRP; Synthetic antimicrobial peptide) [compound 253]” was run?
A: Its value is 91%.

Q: For “254 (RRRPPRLPRPIPFRPPPRVPRPFPIRP; Synthetic antimicrobial peptide) [compound 254]”, which “Growth inhibition (%)” value is on record?
A: The value was 77%.

Q: Which “Growth inhibition (%)” value does the source give for “255 (RRRPPRLPRPIPIRPPPRFPRPVPFRP; Synthetic antimicrobial peptide) [compound 255]” here?
A: The value was 93%.

Q: For “256 (RRRPPRLPRPIPLRPPPRVPRPIPIRP; Synthetic antimicrobial peptide) [compound 256]”, which “Growth inhibition (%)” value is on record?
A: The value was 91%.

Q: For “257 (RRRPPRLPRPIPVRPPPRFPRPIPFRP; Synthetic antimicrobial peptide) [compound 257]”, which “Growth inhibition (%)” value is on record?
A: Its value is 92%.

Q: “258 (RRRPPRLPRPIPVRPPPRFPRPIPFRP; Synthetic antimicrobial peptide) [compound 258]” was tested. Which “Growth inhibition (%)” value did it give?
A: Its value is 92%.

Q: For “259 (RRRPPRLPRPIPVRPPPRFPRPIPVRP; Synthetic antimicrobial peptide) [compound 259]”, which “Growth inhibition (%)” value is on record?
A: The value was 98%.

Q: For “260 (RRRPPRLPRPIPVRPPPRIPRPIPVRP; Synthetic antimicrobial peptide) [compound 260]”, which “Growth inhibition (%)” value is on record?
A: The value was 90%.

Q: “261 (RRRPPRLPRPIPVRPPPRIPRPVPFRP; Synthetic antimicrobial peptide) [compound 261]” was tested. Which “Growth inhibition (%)” value did it give?
A: The value was 92%.
